Measurements taken from ChEMBL document CHEMBL2074449, “P-glycoprotein mediates profound resistance to bisantrene” (Oncol Res, 1994).

Target: ATP-dependent translocase ABCB1 (Homo sapiens, UniProt P08183)
Test: TP_TRANSPORTER: efflux in S1-B1-20 cells
Assay type: functional, cell-based

Sequence of ATP-dependent translocase ABCB1 (P08183 whole entry): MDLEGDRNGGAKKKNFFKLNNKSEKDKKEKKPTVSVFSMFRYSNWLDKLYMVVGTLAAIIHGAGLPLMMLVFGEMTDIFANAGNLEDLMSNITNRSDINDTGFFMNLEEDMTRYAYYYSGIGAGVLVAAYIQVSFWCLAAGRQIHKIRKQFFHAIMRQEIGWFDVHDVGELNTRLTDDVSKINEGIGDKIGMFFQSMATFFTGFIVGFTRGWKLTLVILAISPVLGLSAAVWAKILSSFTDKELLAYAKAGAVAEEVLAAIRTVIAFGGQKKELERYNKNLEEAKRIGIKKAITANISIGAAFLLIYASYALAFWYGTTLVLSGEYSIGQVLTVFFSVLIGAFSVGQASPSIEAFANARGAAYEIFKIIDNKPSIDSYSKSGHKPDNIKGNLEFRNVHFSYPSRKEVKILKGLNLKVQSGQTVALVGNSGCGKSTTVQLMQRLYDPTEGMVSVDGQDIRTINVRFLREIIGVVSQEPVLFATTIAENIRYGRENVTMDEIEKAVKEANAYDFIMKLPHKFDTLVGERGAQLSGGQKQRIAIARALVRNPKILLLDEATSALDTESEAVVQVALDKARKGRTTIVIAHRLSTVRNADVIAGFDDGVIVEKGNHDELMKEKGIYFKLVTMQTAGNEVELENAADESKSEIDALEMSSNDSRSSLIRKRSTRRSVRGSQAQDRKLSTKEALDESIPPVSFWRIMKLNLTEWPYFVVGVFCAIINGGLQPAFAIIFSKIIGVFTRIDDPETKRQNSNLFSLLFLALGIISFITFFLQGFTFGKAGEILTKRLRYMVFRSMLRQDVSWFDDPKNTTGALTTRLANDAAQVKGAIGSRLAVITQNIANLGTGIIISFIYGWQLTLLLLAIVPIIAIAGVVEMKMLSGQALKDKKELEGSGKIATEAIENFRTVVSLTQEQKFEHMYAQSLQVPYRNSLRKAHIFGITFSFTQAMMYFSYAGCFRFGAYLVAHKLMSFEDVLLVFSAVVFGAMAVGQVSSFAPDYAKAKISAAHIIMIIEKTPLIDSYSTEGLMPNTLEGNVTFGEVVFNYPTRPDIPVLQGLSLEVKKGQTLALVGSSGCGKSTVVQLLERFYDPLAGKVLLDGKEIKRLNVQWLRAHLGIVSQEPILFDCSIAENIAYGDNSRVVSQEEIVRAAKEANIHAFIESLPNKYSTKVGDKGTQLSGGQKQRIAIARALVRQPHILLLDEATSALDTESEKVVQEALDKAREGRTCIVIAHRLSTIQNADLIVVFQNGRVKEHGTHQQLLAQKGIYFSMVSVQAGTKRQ

With C(=N\NC1=NCCN1)/c1c2ccccc2c(/C=N/NC2=NCCN2)c2ccccc12 [BISANTRENE] the Activity was “substrate [+]”.
